Assays:
[1] = depending on binding peptide; cited from earlier work
[2] = test system: tagged MLCK peptide (calmodulin binding peptide of myosin light chain kinase with SEQ ID NO. 2 tag on the C-terminus); assay: Fluorescence titration of the formula (I) probe with tagged MLCK peptide; conditions: titration of tagged MLCK peptide into probe solution, FIG. 2
From the text: For the present study, a tagged peptide was created utilizing the calmodulin binding peptide of the myosin light chain kinase (MLCK) having SEQ ID NO. 2 engineered onto the C-terminus (henceforth tagged MLCK peptide). To determine the binding affinity of the probe to the tag, the tagged MLCK peptide was titrated into a solution containing a probe having formula (I). […] This corresponds to peak molar binding in the absence of ethanedithiol.

Non-tagged MLCK peptide = assay: Control titration of the probe with non-tagged MLCK peptide; type: binding; conditions: FIG. 2 circles
[3] = test system: peptide-tag (SEQ ID NO. 2) versus FlAsH tag (SEQ ID NO. 3); assay: Single-pot selective labeling / FRET study, tagged MLCK peptide and FlAsH-tag calmodulin; type: binding
Method: Fluorescent resonance energy transfer (FRET) studies were also performed. Calmodulin which is known to bind MLCK in a 1:1 ratio in the presence of calcium was covalently linked to a FlAsH-tag having sequence CysCysProGlyCysCys (SEQ ID NO. 3). SEQ ID NO. 2 was utilized to label the MLCK peptide as described above.

[4] = Absorbance, emission and photophysical properties of free and tag-bound probe; type: physicochemical
From the text: In addition to NMR, the synthesized probe of formula (I) was characterized by determining the absorbance and emission spectra, as presented in FIG. 1. The free probe has an absorbance maximum at 560 nm and an emission maximum at 568 nm.
The spectra of FIG. 1 are normalized to the probe/tagged MLCK peptide pair.
The tag bound probe has a quantum yield of 0.28.

Row | SMILES | brightness (reported) [1] | increase of probe fluorescence upon addition of tagged peptide [2] [fold] | fluorescence change on titration with non-tagged MLCK peptide (Non-tagged MLCK peptide) | preference for binding of the peptide-tag over FlAsH tag ([3]; single pot labeling with FlAsH and formula (I), FRET results) | FRET between FlAsH labeled calmodulin and formula (I) labeled tagged MLCK peptide ([3]; titration with 0.1-1 μM labeled peptide, FIG. 3) | extinction coefficient [4] | absorbance maximum ([4]; free probe) [nm] | emission maximum ([4]; free probe) [nm] | lifetime under photo bleaching conditions ([4]; peptide bound probe, relative to FlAsH) | fluorescence emission maximum ([4]; probe bound to peptide tag (red-shift)) [nm] | brightness relative to FlAsH and ReAsH ([4]; tag bound probe) | quantum yield ([4]; tag bound probe)
1 | O=C(O)c1ccccc1-c1c2ccc(=O)c([As]3SCCS3)c-2oc2c([As]3SCCS3)c(O)ccc12 [FlAsH] | 41-60 | – | – | – | – | – | – | – | – | – | – | –
2 | CC1(C)C(/C=C/C=C2/N(CCCCS(=O)(=O)O)c3ccc([As]4SCCS4)cc3C2(C)C)=[N+](CCCCS(=O)(=O)[O-])c2ccc([As]3SCCS3)cc21 [formula (I)] | – | 5.8 | no increase in fluorescence | 85/15 | FRET was observed in proportion to labeling | 180,000 | 560 | 568 | three times longer than that of FlAsH | 576 | considerably higher than ReAsH | 0.28

Reference: patent US8354499B2, “Cyanine-based probe\tag-peptide pair fluorescence protein imaging and fluorescence protein imaging methods” (Battelle Memorial Institute, priority 2007, dated 2013)
